Patent US9732063B2, “Kinase inhibitors” (RESPIVERT LIMITED, priority 2012, dated 2017)
pIC50: −log10 of the molar value. Like-named read-outs stand apart in the source and are kept apart here.

What was measured:
p38 MAPKα = p38 MAPKα (Homo sapiens (Human), UniProt Q16539); assay: p38 MAPKα enzyme inhibition (Z-LYTE FRET, Method 2); format: biochemical
Protocol: (§1) The enzyme inhibitory activities of compounds disclosed herein are determined by FRET using synthetic peptides labelled with both donor and acceptor fluorophores (Z-LYTE, Invitrogen Ltd., Paisley, UK).
The inhibitory activities of test compounds against the p38 MAPKα isoform (MAPK14: Invitrogen), are evaluated indirectly by determining the level of activation/phosphorylation of the down-stream molecule, MAPKAP-K2. The p38 MAPKα protein (80 ng/mL, 2.5 μL) is mixed with the test compound (2.5 μL of either 4 μg/mL, 0.4 μg/mL, 0.04 μg/mL or 0.004 μg/mL) for 2 hr at RT. […] The mixture is incubated for 1 hr at RT. Development reagent (protease, 5 μL) is added for 1 hr prior to detection in a fluorescence microplate reader (Varioskan® Flash, ThermoFisher Scientific).
(§2) In all cases, the site-specific protease cleaves non-phosphorylated peptide only and eliminates the FRET signal. Phosphorylation levels of each reaction are calculated using the ratio of coumarin emission (donor) over fluorescein emission (acceptor), for which high ratios indicate high phosphorylation and low ratios indicate low phosphorylation levels.

c-Src = c-Src (Homo sapiens (Human), UniProt P12931); assay: c-Src enzyme inhibition (Z-LYTE FRET); format: biochemical
c-Src, sequence (P12931 whole entry, looked up): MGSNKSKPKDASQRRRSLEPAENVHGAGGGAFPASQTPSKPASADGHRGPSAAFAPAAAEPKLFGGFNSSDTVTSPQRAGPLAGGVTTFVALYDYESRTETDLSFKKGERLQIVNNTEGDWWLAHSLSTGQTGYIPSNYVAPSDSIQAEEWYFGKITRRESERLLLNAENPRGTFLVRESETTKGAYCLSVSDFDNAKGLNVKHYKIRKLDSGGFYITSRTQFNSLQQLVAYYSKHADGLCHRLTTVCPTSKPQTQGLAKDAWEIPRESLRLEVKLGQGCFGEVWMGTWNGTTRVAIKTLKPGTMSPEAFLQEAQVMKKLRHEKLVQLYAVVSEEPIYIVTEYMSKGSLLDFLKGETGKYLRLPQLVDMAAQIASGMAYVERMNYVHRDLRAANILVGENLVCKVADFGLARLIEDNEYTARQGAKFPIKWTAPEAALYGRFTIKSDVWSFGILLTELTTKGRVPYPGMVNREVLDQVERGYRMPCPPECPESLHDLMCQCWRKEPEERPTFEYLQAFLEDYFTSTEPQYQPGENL
Protocol: as §1
(§3) The relevant enzyme (3000 ng/mL or 2000 ng/mL respectively, 2.5 μL) is incubated with the test compound (either 4 μg/mL, 0.4 μg/mL, 0.04 μg/mL, or 0.004 μg/mL, 2.5 μL each) for 2 hr at RT. The FRET peptides (8 μM, 2.5 μL), and appropriate ATP solutions (2.5 μL, 800 μM for c-Src, and 60 μM ATP for Syk) are then added to the enzymes/compound mixtures and incubated for 1 hr. Development reagent (protease, 5 μL) is added for 1 hr prior to detection in a fluorescence microplate reader (Varioskan® Flash, ThermoFisher Scientific).
as §2

Syk = Syk (Homo sapiens (Human), UniProt P43405); assay: Syk enzyme inhibition (Z-LYTE FRET); format: biochemical
Protocol: as §1, §3, §2

GSK3α = GSK3α (Homo sapiens (Human), UniProt P49840); assay: GSK 3α enzyme inhibition (Z-LYTE FRET, Method 2); format: biochemical
GSK3α, sequence (P49840 whole entry): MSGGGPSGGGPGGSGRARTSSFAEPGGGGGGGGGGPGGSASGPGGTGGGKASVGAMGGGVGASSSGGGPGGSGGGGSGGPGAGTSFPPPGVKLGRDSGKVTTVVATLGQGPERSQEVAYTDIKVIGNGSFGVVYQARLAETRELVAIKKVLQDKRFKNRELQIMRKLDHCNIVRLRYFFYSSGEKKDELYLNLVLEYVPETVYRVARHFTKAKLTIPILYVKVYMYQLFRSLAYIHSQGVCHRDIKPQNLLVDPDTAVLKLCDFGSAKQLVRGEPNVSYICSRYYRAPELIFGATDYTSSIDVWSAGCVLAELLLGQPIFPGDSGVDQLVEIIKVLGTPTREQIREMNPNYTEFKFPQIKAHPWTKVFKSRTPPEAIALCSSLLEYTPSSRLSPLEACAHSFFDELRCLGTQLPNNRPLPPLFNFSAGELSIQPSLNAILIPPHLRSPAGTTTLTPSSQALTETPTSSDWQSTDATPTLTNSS
Protocol: as §1
The inhibitory activities of compounds of the invention against the GSK 3α enzyme isoform (Invitrogen), are evaluated by determining the level of activation/phosphorylation of the target peptide. The GSK3-α protein (500 ng/mL, 2.5 μL) is mixed with the test compound (2.5 μL at either 4 μg/mL, 0.4 μg/mL, 0.04 μg/mL, or 0.004 μg/mL) for 2 hr at RT. The FRET peptide (8 μM, 2.5 μL), which is a phosphorylation target for GSK3α, and ATP (40 μM, 2.5 μL) are then added to the enzyme/compound mixture and the resulting mixture incubated for 1 hr. Development reagent (protease, 5 μL) is added for 1 hr prior to detection in a fluorescence microplate reader (Varioskan® Flash, ThermoFisher Scientific).
as §2

PBMCs [1] = assay: LPS-induced TNFα/IL-8 release in PBMC cells; format: cell-based; settings: Homo sapiens, read-out: IC50 Values for Inhibition of Cytokine Release PBMCs IL-8
Protocol: Peripheral blood mononuclear cells (PBMCs) from healthy subjects are separated from whole blood using a density gradient (Lymphoprep, Axis-Shield Healthcare). The PBMCs are seeded in 96 well plates and treated with compounds at the desired concentration for 2 hours before addition of 1 ng/mL LPS (Escherichia Coli O111:B4 from Sigma Aldrich) for 24 hours under normal tissue culture conditions (37° C., 5% CO2). The supernatant is harvested for determination of IL-8 and TN Fa concentrations by sandwich ELISA (Duo-set, R&D systems) and read on the fluorescence microplate reader (Varioskan® Flash, ThermoFisher Scientific).

PBMCs [2] = assay: IL-2 and IFN gamma release in CD3/CD28 stimulated PBMC cells; format: cell-based; settings: Homo sapiens
Protocol: PBMCs from healthy subjects are separated from whole blood using a density gradient (Lymphoprep, Axis-Shield Healthcare). Cells are added to a 96 well plate pre-coated with a mixture of CD3/CD38 monoclonal antibodies (0.3 μg/mL eBioscience and 3 μg/mL BD Pharmingen respectively). Compound at the desired concentration is then added to the wells and the plate left for 3 days under normal tissue culture conditions. Supernatants are harvested and IL-2 and IFN gamma release determined by Sandwich ELISA (Duo-set, R&D System). The IC50 is determined from the dose response curve.

d-U937 cells = assay: LPS-induced TNFα/IL-8 release in d-U937 cells; format: cell-based; settings: Homo sapiens
Protocol: Cells are pre-incubated with final concentrations of test compound for 2 hr and are then stimulated with 0.1 μg/mL of LPS (from E. coli: O111:B4, Sigma) for 4 hr. The supernatant is collected for determination of TNFα and IL-8 concentrations by sandwich ELISA (Duo-set, R&D systems). […] The relative 50% effective concentration (REC50) is determined from the resultant concentration-response curve. The inhibition of IL-8 production is calculated at each concentration of test compound by comparison with vehicle control.

[3] = read-out: IC50 Values for Inhibition of Cytokine Release PBMCs IL-2
[4] = dU937, read-out: IC50 Values for Inhibition of Cytokine Release dU937 cells TNFα
[5] = dU937, read-out: IC50 Values for Inhibition of Cytokine Release dU937 cells IL-8
[6] = read-out: IC50 Values for Inhibition of Cytokine Release PBMCs IFNγ

p38 MAPKα, sequence (Q16539 whole entry): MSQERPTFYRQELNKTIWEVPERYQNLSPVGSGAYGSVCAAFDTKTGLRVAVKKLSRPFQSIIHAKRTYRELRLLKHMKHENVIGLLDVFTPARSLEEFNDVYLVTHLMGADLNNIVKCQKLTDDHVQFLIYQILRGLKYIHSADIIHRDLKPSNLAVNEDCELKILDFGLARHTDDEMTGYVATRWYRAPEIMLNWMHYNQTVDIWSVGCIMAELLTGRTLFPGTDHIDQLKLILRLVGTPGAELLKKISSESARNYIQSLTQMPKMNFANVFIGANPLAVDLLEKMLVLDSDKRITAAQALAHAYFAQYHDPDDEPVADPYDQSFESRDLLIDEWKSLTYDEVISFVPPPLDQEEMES

SMILES	pIC50 (p38 MAPKα)	pIC50 (c-Src)	pIC50 (Syk)	pIC50 (GSK3α)	pIC50 (PBMCs [1])	pIC50 (PBMCs [2]; [3])	pIC50 (d-U937 cells; [4])	pIC50 (d-U937 cells; [5])	pIC50 (PBMCs [2]; [6])
COc1cc(Nc2nccc(Oc3ccc(NC(=O)Nc4cc(C(C)C)nn4-c4ccc(C)cc4)c4ccccc34)n2)cc(OCCN2CCOCC2)c1 [Example 17, 1-(3-Isopropyl-1-(P-tolyl)-1H-pyrazol-5-yl)-3-(4-((2-((3-methoxy-5-(2-morpholinoethoxy)-phenyl)amino)pyrimidin-4-yl)oxy)naphthalen-1-yl)urea]	< 6.55	< 6.42	< 6.27	5.57	8.96	7.69			
COc1cc(Nc2nccc(Oc3ccc(NC(=O)Nc4cc(C(C)C)nn4-c4ccc(C)cc4)c4ccccc34)n2)cc(OCCOCCOCCO)c1 [Example 20, 1-(4-((2-((3-(2-(2-(2-Hydroxyethoxy)ethoxy)ethoxy)-5-methoxyphenyl)amino)pyrimidin-4-yl)oxy)naphthalen-1-yl)-3-(3-isopropyl-1-(P-tolyl)-1H-pyrazol-5-yl)urea]	7.59	8.10	8.10		8.82	7.09	8.80		
COc1cc(Nc2nccc(Oc3ccc(NC(=O)Nc4cc(C(C)C)nn4-c4ccc(C)cc4)c(Cl)c3Cl)n2)cc(OCCN2CCOCC2)c1 [Example 21, 1-(2,3-Dichloro-4-((2-((3-methoxy-5-(2-morpholinoethoxyl)phenyl)amino)pyrimidin-4-yl)-oxy)phenyl)-3-(3-isopropyl-1-(p-tolyl)-1H-pyrazol-5-yl)urea]	6.47	7.21	7.14		8.80	7.97	8.96	8.80	8.72
COc1cc(Nc2nccc(Oc3ccc(NC(=O)Nc4cc(C(C)C)nn4-c4ccc(C)cc4)c(Cl)c3Cl)n2)cc(S(=O)(=O)C2CC2)c1 [Example 23, 1-(2,3-Dichloro-4-((2-((3-(cyclopropylsulfonyl)-5-methoxyphenyl)amino)pyrimidin-4-yl)-oxy)phenyl)-3-(3-isopropyl-1-(p-tolyl)-1H-pyrazol-5-yl)urea]		7.28	6.54	5.85	8.59				
COCCOCCOCCOCCOc1cc(Nc2nccc(Oc3ccc(NC(=O)Nc4cc(C(C)C)nn4-c4ccc(C)cc4)c4ccccc34)n2)cc(OC)c1 [Example 29, 1-(4-((2-((3-(2,5,8,11-Tetraoxatridecan-13-yloxy)-5-methoxyphenyl)amino)pyrimidin-4-yl)oxy)naphthalen-1-yl)-3-(3-isopropyl-1-(p-tolyl)-1H-pyrazol-5-yl)urea]	7.52	8.22	7.80	< 5.00	8.60	7.13			8.18
COCCOCCOCCOCCOCCOc1cc(Nc2nccc(Oc3ccc(NC(=O)Nc4cc(C(C)C)nn4-c4ccc(C)cc4)c4ccccc34)n2)cc(OC)c1 [Example 30, 1-(4-((2-((3-(2,5,8,11,14-Pentaoxahexadecan-16-yloxy)-5-methoxyphenyl)amino)-pyrimidin-4-yl)oxy)naphthalen-1-yl)-3-(3-isopropyl-1-(p-tolyl)-1H-pyrazol-5-yl)urea]	7.49	8.40	7.92	5.14	8.68	7.56			7.82
COCCOCCOCCOCCOCCOCCOCCOc1cc(Nc2nccc(Oc3ccc(NC(=O)Nc4cc(C(C)C)nn4-c4ccc(C)cc4)c4ccccc34)n2)cc(OC)c1 [Example 32, 1-(4-((2-((3-(2,5,8,11,14,17,20-Heptaoxadocosan-22-yloxy)-5-methoxyphenyl)amino)-pyrimidin-4-yl)oxy)naphthalen-1-yl)-3-(3-isopropyl-1-(p-tolyl)-1H-pyrazol-5-yl)urea]	7.96	8.52	8.15	5.33	8.85				
COc1cc(Nc2nccc(Oc3ccc(NC(=O)Nc4cc(C(C)(C)C)nn4-c4ccc(C)cc4)c4ccccc34)n2)cc(SCCCN2CCOCC2)c1 [Example 42, 1-(3-(tert-Butyl)-1-(p-tolyl)-1H-pyrazol-5-yl)-3-(4-((2-((3-methoxy-5-((3-morpholinopropyl)-thio)phenyl)amino)pyrimidin-4-yl)oxy)naphthalen-1-yl)urea]	6.54	7.55	7.29	5.71	8.44	7.23			9.00
COc1cc(Nc2nccc(Oc3ccc(NC(=O)Nc4cc(C(C)(C)C)nn4-c4ccc(C)cc4)c4ccccc34)n2)cc(OCCN2CCOCC2)c1 [Example 45, 1-(3-(tert-Butyl)-1-(P-tolyl)-1H-pyrazol-5-yl)-3-(4-((2-((3-methoxy-5-(2-morpholinoethoxy)-phenyl)amino)pyrimidin-4-yl)oxy)naphthalen-1-yl)urea]	6.84	7.92	7.82	5.83	8.49	7.13			8.66
COc1cc(Nc2nccc(Oc3ccc(NC(=O)Nc4cc(C(C)(C)C)nn4-c4ccc(C)cc4)c4ccccc34)n2)cc(OCCOCCOCCN(C)C)c1 [Example 57, 1-(3-(tert-Butyl)-1-(p-tolyl)-1H-pyrazol-5-yl)-3-(4-((2-((3-(2-(2-(2-(dimethylamino)ethoxy)ethoxy)ethoxy)-5-methoxyphenyl)amino)pyrimidin-4-yl)oxy)naphthalen-1-yl)urea]		8.15	8.10	5.71	9.05	7.84			8.85
COCCOCCOc1cc(Nc2nccc(Oc3ccc(NC(=O)Nc4cc(C(C)(C)C)nn4-c4ccc(C)cc4)c4ccccc34)n2)cc(OC)c1 [Example 60, 1-(3-(tert-Butyl)-1-(p-tolyl)-1H-pyrazol-5-yl)-3-(4-((2-((3-methoxy-5-(2-(2-methoxyethoxy)ethoxy)phenyl)amino)pyrimidin-4-yl)oxy)naphthalen-1-yl)urea]		7.77	7.52	< 5.00	8.66	7.14			8.52
COc1ccc(-n2nc(C(C)(C)C)cc2NC(=O)Nc2ccc(Oc3ccnc(Nc4cc(OC)cc(S(=O)(=O)C5CC5)c4)n3)c3ccccc23)cc1 [Example 70, 1-(3-(tert-Butyl)-1-(4-methoxyphenyl)-1H-pyrazol-5-yl)-3-(4-((2-((3-(cyclopropylsulfonyl)-5-methoxyphenyl)amino)pyrimidin-4-yl)oxy)naphthalen-1-yl)urea]	6.52		7.21	5.47	9.05	7.13	8.96	8.72	8.85
